The text below walks through data of patent publication US20150197814A1, “EGFR AND KRAS MUTATIONS” (Genentech, Inc., priority 2005, published 2015).

In one assay the test system is A431 xenografts. The conditions noted are these: A431 xenografts in nude mice; cited from earlier work.
For the next assay, the system named is cell cycle. The conditions noted are these: cited from earlier work.
For assay [1], the system named is H1975 tumor cell line (EGFR T790M in combination with L858R). As to the kind of experiment: sensitivity of H1975 tumor cell line to treatment.
The conditions of assay [2]: with paclitaxel, cisplatin, gemcitabine, and doxorubicin; cited from earlier work.
A further assay deals with HN5 xenografts. The conditions noted are these: HN5 xenografts in nude mice; cited from earlier work.

`C#Cc1cccc(Nc2ncnc3cc(OCCOC)c(OCCOC)cc23)c1` [erlotinib]: the “growth inhibition of xenografts” value in the assay with A431 xenografts and in the assay on HN5 xenografts was “marked growth inhibition” each time. Besides, the cell cycle effect result with cell cycle is “cell cycle arrest at G1”. Also, the “response of tumor cell line to treatment” value in assay [1] is “resistance”. Further, the “interaction with chemotherapy agents” value in assay [2] is reported as “additive interaction”.
